ChEMBL document CHEMBL5030551, “Identification of Plasmodium falciparum falcilysin inhibitors by a virtual screen” (Bioorg Med Chem Lett, 2021)

How the values were obtained:
[1] = test system: Plasmodium falciparum; assay: Antiplasmodial activity against Plasmodium falciparum 3D7 infected in human red blood cells assessed as reduction in parasitemia measured after 70 to 80 hrs by SYBR Green dye based assay; assay type: functional, organism-based, RBC; settings: 3D7, Erythrocyte
[2] = Inhibition of recombinant Plasmodium falciparum FLN expressed in Escherichia coli BL21 using Dabcyl-HKRHSFRMRG-EDANS as substrate incubated for 10 mins by fluorecence assay

## Cc1cccc(-c2nc3c4ccccc4nc(NCCc4ccccc4)n3n2)c1
[1]
  EC50: 5.3 µM
[2]
  IC50: > 25 µM

## O=C1/C(=c2/c3ccccc3n3c(=O)c4ccccc4nc23)Nc2ccccc21
[1]
  EC50: 5.1 µM
[2]
  IC50: > 25 µM

## O=C(Nc1nc2ccccc2[nH]1)c1cc(-c2ccccn2)nc2ccccc12
[1]
  EC50: 14.9 µM
[2]
  IC50: > 25 µM

## Cc1cccc(NC(=O)Cn2c(C)cc(=O)n3nc(-c4cccc(C)c4)nc23)c1
[1]
  EC50: > 25 µM
[2]
  IC50: > 25 µM

## O=C1c2ccc3c(c2CC12Cc1ccc4c(c1C2=O)CCCC4)CCCC3 (stereo not given)
[1]
  EC50: > 25 µM
[2]
  IC50: > 25 µM

## C[C@H]1CCc2[nH]c3ccc(C(=O)NC[C@H]4COc5ccccc5O4)cc3c2C1
[1]
  EC50: 9.1 µM
[2]
  IC50: > 25 µM

## Cc1nn(-c2cccc(C(=O)N3CCN(C)C(=O)C3)c2)c(=O)c2ccccc12
[1]
  EC50: > 25 µM
[2]
  IC50: > 25 µM

## O=C(c1ccc2c3c(cccc13)CC2)[C@H]1CCCN(Cc2cc(=O)[nH]c(=O)[nH]2)C1
[1]
  EC50: > 25 µM
[2]
  IC50: > 25 µM

## Cc1cc2cc(CCNC(=O)c3ccc4ccccc4c3)c(=O)[nH]c2cc1C
[1]
  EC50: 5.5 µM
[2]
  IC50: > 25 µM

## O=c1cc(CN2CCc3n[nH]c(-c4cccc5ccccc45)c3C2)[nH]c(=O)[nH]1
[1]
  EC50: > 25 µM
[2]
  IC50: > 25 µM

## O=C(NN1C(=O)c2cccc3cccc(c23)C1=O)NN1C(=O)c2cccc3cccc(c23)C1=O
[1]
  EC50: > 25 µM
[2]
  IC50: > 25 µM

## Cc1ccc(-c2nc3cccnc3n2CCNC(=O)Nc2ccccc2F)cc1
[1]
  EC50: > 25 µM
[2]
  IC50: > 25 µM

## O=C(c1cc(-c2cccc3cccnc23)cc(-n2cnnn2)c1)N1CCCCC1
[1]
  EC50: > 25 µM
[2]
  IC50: > 25 µM

## C[C@@H](c1cc(=O)[nH]c(N[C@H]2CCc3ccccc32)n1)n1ncc2ccccc2c1=O
[1]
  EC50: > 25 µM
[2]
  IC50: > 25 µM

## Cc1ccc(N2C[C@@H](c3nc(-c4ccc5oc(C)nc5c4)no3)CC2=O)cc1
[1]
  EC50: > 25 µM
[2]
  IC50: > 25 µM

## O=C(Cn1cc(-c2nnc(-c3ccccc3)o2)c2ccccc21)Nc1ccccc1
[1]
  EC50: > 25 µM
[2]
  IC50: 12 µM

## CC(=O)n1cc([C@H]2CC(=O)OC3=C2C(=O)c2ccccc23)c2ccccc21
[1]
  EC50: > 25 µM
[2]
  IC50: 11 µM

## O=C(Nc1ccc(Cl)cc1)Nc1nnc2nc(CC(=O)c3ccc4ccccc4c3)c(=O)[nH]n12
[1]
  EC50: 12 µM
[2]
  IC50: 19 µM

## O=C1NC(=O)C(c2ccccc2)(c2ccccc2)[C@@H]2C[C@@H]3c4[nH]c5ccccc5c4CCN3C[C@H]12
[1]
  EC50: 1.7 µM
[2]
  IC50: 12 µM

## O=c1/c(=C/c2ccc(/C=c3\sc4nc5ccccc5n4c3=O)cc2)sc2nc3ccccc3n12
[1]
  EC50: > 25 µM
[2]
  IC50: > 25 µM

## CN1CCC2(CC1)Oc1ccccc1[C@H]1CC(c3cccc4ccccc34)=NN12
[1]
  EC50: 3.8 µM
[2]
  IC50: > 25 µM

## O=C1Oc2ccccc2C(=O)Oc2ccccc2C(=O)Oc2ccccc2C(=O)Oc2ccccc21
[1]
  EC50: > 25 µM
[2]
  IC50: > 25 µM

## Cn1nc(C(=O)NCc2ccccc2)c2c1CCN(Cc1cc3ccccc3[nH]1)C2
[1]
  EC50: 3.8 µM
[2]
  IC50: > 25 µM

## Cc1nc2ccccc2c(=O)n1Cc1noc(-c2cc3ccccc3oc2=O)n1
[1]
  EC50: > 25 µM
[2]
  IC50: > 25 µM

## Nc1c(C(=O)Nc2ccc3c(c2)C(=O)c2ccccc2C3=O)ccc2c1C(=O)c1ccccc1C2=O
[1]
  EC50: > 25 µM
[2]
  IC50: 1.76 µM

## C[C@@H]1Cc2cc(-c3cc(CC(=O)N=c4[nH]c5ccccc5[nH]4)no3)ccc2O1
[1]
  EC50: > 25 µM
[2]
  IC50: > 25 µM

## Cc1ccc(-c2noc(CSc3nc(O)cc(-c4ccccc4)n3)n2)cc1C
[1]
  EC50: > 25 µM
[2]
  IC50: > 25 µM

## CC1=C(C(=O)Nc2ccccc2C)[C@H](c2ccc3c(c2)OCO3)n2ncnc2N1
[1]
  EC50: > 25 µM
[2]
  IC50: > 25 µM

## Cc1c(C(=O)NCCc2nc3ccccc3[nH]2)oc2c1ccc1ccccc12
[1]
  EC50: 3 µM
[2]
  IC50: > 25 µM

## c1cnc2c(c1)CN(c1nc(-c3c[nH]c4ccccc34)nc3c1CNC3)CC2
[1]
  EC50: 4.4 µM
[2]
  IC50: 21 µM
